Twelve molecules from PubChem BioAssay (NCI) can be followed below.

Test systems include RPMI-8226 leukemia; OVCAR-4 ovarian; NCI/ADR-RES ovarian; SNB-19 CNS; NCI-H522 lung; SK-OV-3 ovarian; MDA-MB-435; CAKI-1 renal; IGROV1 ovarian; BT-549 breast.
Holding throughout (assay): NCI-60 cell line screen, 48 h

Structures are written as SMILES.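 Grown in 96-well plates, cells were treated for 48 hours with each compound at five concentrations. Insufficient inhibition: endpoint recorded as highest concentration tested. GI50 = concentration required for 50% inhibition of growth. TGI is the concentration that stops growth completely.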

With `COc1ccc(-c2cnc(-c3ccc(F)cc3)[nH]2)cc1`, the GI50 in the assay on RPMI-8226 leukemia is 2.39 µM; with OVCAR-4 ovarian, 10.1 µM; in the assay on NCI/ADR-RES ovarian it was 28.6 µM; with SNB-19 CNS, 10.8 µM; in the assay on NCI-H522 lung, 20.5 µM; in the assay on SK-OV-3 ovarian, 16.5 µM. For the same molecule, the GI50 is 1.96 µM in the assay on MDA-MB-435, 1.82 µM with CAKI-1 renal, 6.58 µM in the assay on IGROV1 ovarian and 1.79 µM with BT-549 breast. Also, the TGI in the assay with RPMI-8226 leukemia is above 27.2 µM; in the assay with OVCAR-4 ovarian it was above 35.3 µM; in the assay on NCI/ADR-RES ovarian, above 100 µM; with SNB-19 CNS, 26.1 µM; in the assay on NCI-H522 lung, above 56.1 µM; with SK-OV-3 ovarian, above 66.4 µM. Further, the TGI in the assay on MDA-MB-435 was 5.27 µM; in the assay with CAKI-1 renal it was 5.57 µM; with IGROV1 ovarian it was 12.7 µM; with BT-549 breast it was 4.12 µM.

On to `N#C/C(=C/C=C(\Cl)c1ccc(Cl)cc1)C(N)=O`, for which the GI50 in the assay with RPMI-8226 leukemia is 2.14 µM; in the assay with OVCAR-4 ovarian, 4.91 µM; in the assay with NCI/ADR-RES ovarian, 2.67 µM; in the assay with SNB-19 CNS it was 8.13 µM; in the assay with NCI-H522 lung, above 22.7 µM; in the assay on SK-OV-3 ovarian, 14.9 µM. The GI50 with MDA-MB-435 was 1.93 µM; with CAKI-1 renal, 1.29 µM; in the assay with IGROV1 ovarian, above 20 µM; with BT-549 breast it was 7 µM. Moreover, the TGI in the assay with RPMI-8226 leukemia was above 100 µM; in the assay on OVCAR-4 ovarian, above 48.2 µM; in the assay with NCI/ADR-RES ovarian, 7.43 µM; in the assay with SNB-19 CNS, 22.7 µM; with NCI-H522 lung, above 62.2 µM; in the assay with SK-OV-3 ovarian, 42.3 µM. Further, the TGI in the assay with MDA-MB-435 was 4.12 µM; with CAKI-1 renal, 2.99 µM; in the assay with IGROV1 ovarian, above 100 µM; in the assay with BT-549 breast, 13.9 µM.

With `Cc1cc(O)c2c(c1)C(=O)c1cc(O)cc(O)c1C2=O`, the TGI in the assay on RPMI-8226 leukemia was 99.8 µM; in the assay with OVCAR-4 ovarian, 98.8 µM; in the assay with NCI/ADR-RES ovarian, above 100 µM; in the assay with SNB-19 CNS it was above 100 µM; in the assay on NCI-H522 lung, above 66.3 µM; with SK-OV-3 ovarian, above 91.9 µM. Besides, the TGI in the assay on MDA-MB-435 was 62.5 µM; with CAKI-1 renal, 52.9 µM; in the assay with IGROV1 ovarian, above 100 µM; in the assay on BT-549 breast, 86 µM. In addition, the GI50 in the assay with NCI/ADR-RES ovarian was 36.8 µM; with MDA-MB-435 it was 18.1 µM; in the assay on IGROV1 ovarian, 65.2 µM; with BT-549 breast it was 25.4 µM.

On to `O=C(Nc1cnn2ccc(N3CCC[C@@H]3c3cc(F)ccc3F)nc12)N1CC[C@H](O)C1`, for which the GI50 with RPMI-8226 leukemia, in the assay on OVCAR-4 ovarian, with NCI/ADR-RES ovarian, in the assay with SNB-19 CNS, with NCI-H522 lung and in the assay with SK-OV-3 ovarian was above 100 µM in each case. Moreover, the GI50 in the assay with MDA-MB-435, in the assay with CAKI-1 renal, in the assay on IGROV1 ovarian and with BT-549 breast was above 100 µM throughout. The TGI with RPMI-8226 leukemia, in the assay on OVCAR-4 ovarian, with NCI/ADR-RES ovarian, in the assay with SNB-19 CNS, in the assay on NCI-H522 lung and in the assay on SK-OV-3 ovarian was above 100 µM each time. Further, the TGI with MDA-MB-435, in the assay on CAKI-1 renal, in the assay with IGROV1 ovarian and in the assay with BT-549 breast was above 100 µM in each case.

Consider `COc1cc(NN=C(c2ccc(O)cc2)c2ccc(O)cc2)c([N+](=O)[O-])cc1[N+](=O)[O-]`, for which the GI50 with RPMI-8226 leukemia was 1.5 µM; with OVCAR-4 ovarian, 12.2 µM; with NCI/ADR-RES ovarian it was 13.1 µM; in the assay with SNB-19 CNS, 10.7 µM; in the assay on NCI-H522 lung, 8.86 µM; in the assay on SK-OV-3 ovarian it was 16.6 µM. Besides, the GI50 in the assay with MDA-MB-435 was 10.4 µM; in the assay on CAKI-1 renal, 13.8 µM; in the assay on IGROV1 ovarian it was 12.7 µM; with BT-549 breast, 14 µM. Further, the TGI was above 100 µM with RPMI-8226 leukemia; 27 µM in the assay with OVCAR-4 ovarian; 51.5 µM with NCI/ADR-RES ovarian; 23.3 µM in the assay on SNB-19 CNS; 29.9 µM with NCI-H522 lung; 30.2 µM in the assay with SK-OV-3 ovarian. For the same molecule, the TGI with MDA-MB-435 came out at 22.6 µM; with CAKI-1 renal it was 26.7 µM; with IGROV1 ovarian, 32.8 µM; in the assay on BT-549 breast, 30.2 µM.

As for `COc1cc2c3c(n(CCCN)c(=O)c2cc1OC)-c1ccc(F)cc1C3=O`, the GI50 with RPMI-8226 leukemia was 0.605 µM; with OVCAR-4 ovarian, 6.04 µM; with NCI/ADR-RES ovarian, 10.6 µM; in the assay with SNB-19 CNS it was 1.47 µM; in the assay with NCI-H522 lung, 2.35 µM; with SK-OV-3 ovarian it was 3.87 µM. In addition, the GI50 in the assay on MDA-MB-435 is 8.16 µM; with CAKI-1 renal, 1.69 µM; with IGROV1 ovarian it was 1.82 µM; in the assay with BT-549 breast, 3.81 µM. For the same molecule, the TGI came out at 2.71 µM in the assay on RPMI-8226 leukemia; 21.2 µM with OVCAR-4 ovarian; 25.2 µM in the assay with NCI/ADR-RES ovarian; 15.9 µM in the assay on SNB-19 CNS; 20.3 µM in the assay with NCI-H522 lung; 17.7 µM in the assay with SK-OV-3 ovarian. Moreover, the TGI with MDA-MB-435 came to 25.5 µM; in the assay with CAKI-1 renal, 15.6 µM; in the assay on IGROV1 ovarian, 7.68 µM; with BT-549 breast it was 14.4 µM.

In the case of `C(CCc1nnc2c(n1)CCCC2)Cc1nnc2c(n1)CCCC2`, the TGI with RPMI-8226 leukemia, in the assay on OVCAR-4 ovarian, in the assay on NCI/ADR-RES ovarian, in the assay on SNB-19 CNS, in the assay with NCI-H522 lung and with SK-OV-3 ovarian was above 100 µM throughout. Further, the TGI in the assay on MDA-MB-435, with CAKI-1 renal, in the assay on IGROV1 ovarian and in the assay with BT-549 breast was above 100 µM each time.

On to `CC(C)(C)OC(=O)NCCCCCCCCn1c2c(c3ccccc3c1=O)C(=O)c1ccccc1-2`, for which the GI50 in the assay with RPMI-8226 leukemia is above 50 µM; with OVCAR-4 ovarian, above 50 µM; in the assay with NCI/ADR-RES ovarian, above 42.1 µM; in the assay on SNB-19 CNS, 14.9 µM; with NCI-H522 lung, 13.5 µM; in the assay on SK-OV-3 ovarian, 14.4 µM. Moreover, the GI50 in the assay with MDA-MB-435 is above 50 µM; with CAKI-1 renal it was 11.8 µM; in the assay on IGROV1 ovarian, 14.3 µM; with BT-549 breast, 15.6 µM. In addition, the TGI with RPMI-8226 leukemia was above 50 µM; with OVCAR-4 ovarian, above 50 µM; in the assay with NCI/ADR-RES ovarian, above 50 µM; with SNB-19 CNS, above 50 µM; in the assay with NCI-H522 lung, above 43.6 µM; in the assay with SK-OV-3 ovarian, above 39.4 µM. The TGI was above 50 µM with MDA-MB-435, above 36.5 µM in the assay with CAKI-1 renal, above 50 µM with IGROV1 ovarian and above 50 µM with BT-549 breast.

Consider `COc1ccc2cc(C(=O)/C=C/c3cccc(Cl)c3Cl)ccc2c1`, for which the GI50 with RPMI-8226 leukemia is 5.56 µM; with OVCAR-4 ovarian it was 44.6 µM; in the assay with NCI/ADR-RES ovarian it was 12.7 µM; in the assay on SNB-19 CNS it was 26.2 µM; with NCI-H522 lung, 0.614 µM; in the assay with SK-OV-3 ovarian, 24.7 µM. Moreover, the GI50 was 1.44 µM in the assay on MDA-MB-435, 5.6 µM with CAKI-1 renal, 16.6 µM in the assay on IGROV1 ovarian and 12.5 µM with BT-549 breast. The TGI is above 46.8 µM in the assay on RPMI-8226 leukemia; above 100 µM with OVCAR-4 ovarian; above 100 µM with NCI/ADR-RES ovarian; above 83.3 µM in the assay on SNB-19 CNS; above 24.6 µM in the assay on NCI-H522 lung; above 62.4 µM with SK-OV-3 ovarian. In addition, the TGI in the assay with MDA-MB-435 was 29.6 µM; in the assay with CAKI-1 renal, 80.6 µM; with IGROV1 ovarian, above 100 µM; with BT-549 breast, 48.9 µM.

For `CC[N+](CC)=c1ccc2nc3c(cc(NCc4ccccc4)c4ccccc43)oc-2c1`, the GI50 in the assay with RPMI-8226 leukemia is 0.0949 µM; in the assay with OVCAR-4 ovarian, 0.176 µM; in the assay with NCI/ADR-RES ovarian, 0.227 µM; in the assay on SNB-19 CNS, 1.19 µM; with NCI-H522 lung it was 0.149 µM; in the assay with SK-OV-3 ovarian it was 1.12 µM. Moreover, the GI50 was 0.18 µM with MDA-MB-435, 0.231 µM in the assay with CAKI-1 renal, 0.258 µM with IGROV1 ovarian and 1.14 µM with BT-549 breast. The TGI with RPMI-8226 leukemia came to 0.539 µM; in the assay on OVCAR-4 ovarian it was 1.63 µM; with NCI/ADR-RES ovarian, 1.76 µM; in the assay with SNB-19 CNS it was 2.51 µM; with NCI-H522 lung, 0.567 µM; in the assay with SK-OV-3 ovarian, 2.32 µM. Besides, the TGI with MDA-MB-435 was determined as 0.352 µM; in the assay with CAKI-1 renal it was 1.54 µM; in the assay with IGROV1 ovarian, 1.67 µM; with BT-549 breast, 2.51 µM.

Regarding `Nc1ccc(C#Cc2cncnc2Nc2ccc(OCc3cccc(F)c3)c(Cl)c2)cc1`, the GI50 in the assay with RPMI-8226 leukemia was 15.3 µM; with OVCAR-4 ovarian it was 12.3 µM; in the assay with NCI/ADR-RES ovarian, 12.7 µM; with SNB-19 CNS, above 14.3 µM; in the assay on NCI-H522 lung it was 4.94 µM; in the assay on SK-OV-3 ovarian, 8.88 µM. The GI50 was above 17.6 µM in the assay with MDA-MB-435, 5.87 µM with CAKI-1 renal, 4.93 µM in the assay on IGROV1 ovarian and above 21 µM in the assay with BT-549 breast. Also, the TGI in the assay with RPMI-8226 leukemia is above 25 µM; in the assay with OVCAR-4 ovarian it was above 25 µM; in the assay with NCI/ADR-RES ovarian it was above 25 µM; with SNB-19 CNS, above 25 µM; with NCI-H522 lung it was above 23.2 µM; in the assay on SK-OV-3 ovarian, above 25 µM. Besides, the TGI in the assay on MDA-MB-435, in the assay on CAKI-1 renal, in the assay with IGROV1 ovarian and with BT-549 breast was above 25 µM in each case.

In the case of `NC(=O)c1[nH]nc(C2OC(CO)C(O)C2O)c1O` (centres undefined), the TGI in the assay with RPMI-8226 leukemia was 1830 µM; in the assay with OVCAR-4 ovarian, 520 µM; in the assay on NCI/ADR-RES ovarian, 105 µM; in the assay on SNB-19 CNS, above 4620 µM; in the assay on NCI-H522 lung, 1050 µM; with SK-OV-3 ovarian it was 460 µM. Besides, the TGI with MDA-MB-435 is 469 µM; in the assay on CAKI-1 renal, 158 µM; with IGROV1 ovarian, 1280 µM; in the assay with BT-549 breast, 1160 µM.
